Laboratory results: article PMC5830979, “Preclinical In Vitro and In Vivo Evaluation of [^18F]FE@SUPPY for Cancer PET Imaging: Limitations of a Xenograft Model for Colorectal Cancer” (Contrast Media & Molecular Imaging, 2018)
Where two headings read alike, the source gives them in different places.

Assays:
rat A3AR = test system: rat A3AR; parameters: method as in PMID 25242859; conditions: cited from earlier work
HT-29 cells [1] = test system: HT-29 cells; parameters: method as in PMID 23454010; conditions: 1 µM, A3AR-dependent; cited from earlier work
HCT-116 cells = test system: HCT-116 cells; parameters: method as in PMID 23454010; conditions: A3AR dependent; cited from earlier work
[2] = In vitro stability against mouse S9 fraction; type: in vitro ADME; conditions: mouse liver homogenates (S9 fraction), 120 min
Description: (§1) Stability of [^18F]FE@SUPPY was tested against mouse liver microsomes, mouse S9 fraction, and mouse plasma (BD Sciences). Amount of intact tracer (%) was determined after 5, 10, 20, 40, 60, and 120 min using an Agilent series 1100/1200 HPLC system connected to a radioactivity detector (Raytest, Ramona Star) (n = 2 in triplicate). The assay was conducted as previously described for respective rat and human enzymes.

[3] = test system: colorectal carcinoma tissue slices; assay: Autoradiography of human colorectal carcinoma versus healthy colon tissue slices; type: binding; conditions: in 5 of 7 regions, two CRC patients, P < 0.05
Description: Colorectal carcinoma tissue and adjacent healthy colon tissue were obtained directly after tumorectomy from two patients after full informed consent and quick-frozen in 2-methylbutane (−40°C). Tissue was sliced into 16 μm slices using a microcryotome (Thermo Scientific Microm HM 560) and stored at −80°C until usage. Depending on the sample size, 3 to 4 different regions were defined and analyzed by means of autoradiography and immunohistochemistry.
Tissue slices were thawed and reconstituted in assay buffer (50 mM Tris-HCl pH 7.4, 100 mM NaCl, 1 mM EDTA, 1% BSA, 1 unit adenosine deaminase/100 mL) for 30 min at RT. Radiosynthesis of [^18F]FE@SUPPY was performed as previously described and the product was physiologically formulated (EtOH/0.9% saline 10/90). Tissue slices were incubated with 50 kBq [^18F]FE@SUPPY (40–200 GBq/μmol) in 100 μL assay buffer for 1 h at RT. Slices were thoroughly washed with ice-cold wash buffer (50 mM Tris-HCl pH 7.4), dried, and exposed to a phosphor screen overnight. The readout of the phosphor storage screen was performed on a Cyclone Phosphor Imager (Perkin Elmer), and data analysis was performed using OptiQuant® Software as previously described. […] Differences among groups (colorectal cancer versus healthy colon) were analyzed using a two-tailed, unpaired Student's t-test with Welch's correction.

[4] = Ex vivo blood stability in BALB/c mice; conditions: 70 min after retroorbital injection
Description: Radiosynthesis was performed as described elsewhere and the product was processed as follows: ethanol was totally evaporated and the dry product was again physiologically formulated in 1.5–2 mL Tween-20/EtOH/0.9% saline 1/9/90 to obtain activity concentrations of approximately 1 GBq/mL. Healthy BALB/c mice were injected with 18 ± 2 MBq (molar activity = 70–200 GBq/μmol) retroorbitally and sacrificed after 5, 10, 20, 40, and 70 min (n = 3 for each time point). Blood samples were collected and immediately precipitated using acetonitrile/methanol (10 : 1) and centrifuged (12,000 rpm, 5 min, 4°C). The obtained supernatants were subjected to radio-HPLC as previously described.

[5] = In vitro stability in mouse plasma; type: in vitro ADME; conditions: 120 min incubation at 37°C
Description: as §1

[6] = In vitro stability against mouse liver microsomes; type: in vitro ADME; conditions: purified mouse liver microsomes, 120 min
Description: as §1

[7] = Ex vivo biodistribution in BALB/c mice; conditions: 70 min after tracer application, n = 3
Description: Ex vivo biodistribution of [^18F]FE@SUPPY was assessed 70 min after tracer application in BALB/c mice. Radioactivity was determined using a gamma counter (2480 Wizard^2, PerkinElmer), organs were wet-weighted, and percentage of injected dose per gram of organ was calculated (%ID/g).

HT-29 xenografts = assay: µPET imaging of HT-29 / CHO-K1 xenograft-bearing CB17-SCID mice; type: in vivo; conditions: µPET 60 min, baseline
Description: After 10 to 14 days upon arrival, CB17-SCID mice were injected subcutaneously with 2 × 10^6 HT-29 cells into one flank and 2 × 10^6 CHO-K1 cells in the opposite flank (n = 9). Body weight and tumor development were monitored every second day by caliper measurement. The respective tumor volume was calculated according to the following equation: tumor volume (mm^3) = d^2 × D/2 (where d is the shortest diameter and D the longest diameter). Animals were subjected to μPET imaging 10 days after inoculation, when tumors reached a volume of at least 300 mm^3. Tumor volume never exceeded 1 cm^3.
Xenograft-bearing CB17-SCID mice were anesthetized using isoflurane (2.5%) mixed with oxygen (1.5 L/min) to avoid movement during the imaging. Blocking agents (2 mg/kg BW FE@SUPPY or MRS1523) or the respective vehicle control (Tween-20/EtOH/0.9% physiological saline 1/9/90) was administered retroorbitally 2 min prior to the radiotracer administration (n = 3 per group). Subsequently, the animals received another retroorbital injection of 17.42 ± 4.5 MBq [^18F]FE@SUPPY into the venous plexus of the opposite eye. With a minor delay after the application of the radiotracer (2-3 min), mice were placed into the field of view of the scanner (μPET/CT Inveon, Siemens Medical Solution, Knoxville, USA), and dynamic imaging was performed for 60 min to follow tracer distribution. Vital parameters (respiration, body temperature) were continuously monitored using a dedicated monitoring unit (bioVet; m2m imaging, Cleveland, OH, USA) to ensure the depth of anesthesia and wellbeing of the animals.

[8] = parameters: method as in PMID 25601336; conditions: rats, after 60 min; cited from earlier work
hA2AAR = hA2AAR (Homo sapiens, UniProt P29274); assay: Competitive binding assay, hA2AAR membranes, [3H]CGS21680; conditions: read-out: Ki hA2AAR; [3H]CGS21680 50 nM; DMSO up to 10%; n = 3–5 in triplicate
Description: (§2) The assay was performed according to the manufacturer's instructions in a final volume of 500 μL. Increasing concentrations of test compounds were added, whereby the concentration of dimethyl sulfoxide (DMSO) in final assay volume remained ≤10% (hA1AR and hA2AAR assay) and ≤1% in the hA3AR assay. Nonspecific binding was determined using 1 μM DPCPX (hA1R assay), 1 μM SCH-442,416 (hA2AR assay), or 10 μM I-AB-MECA (hA3AR assay). Filtration through GF/B filters (Whatman®, presoaked in 0.1% PEI or 0.5% BSA) was performed using a cell harvester (Brandel®), and receptor-bound radioactivity was determined via gamma counting (2480 Wizard^2, PerkinElmer) or liquid scintillation counting (Hidex 300 SL). IC50 fitted binding curves were generated using the GraphPad Software 5.0, and Ki values were calculated using the Cheng-Prusoff equation.

hA1AR = target: T1, hA1AR (Homo sapiens, UniProt P30542); assay: Competitive binding assay, hA1AR membranes, [3H]DPCPX; conditions: for Ki: read-out: Ki hA1AR, [3H]DPCPX […], DMSO up to 10%, n = 3–5 in triplicate
T1 sequence (P30542 1-326): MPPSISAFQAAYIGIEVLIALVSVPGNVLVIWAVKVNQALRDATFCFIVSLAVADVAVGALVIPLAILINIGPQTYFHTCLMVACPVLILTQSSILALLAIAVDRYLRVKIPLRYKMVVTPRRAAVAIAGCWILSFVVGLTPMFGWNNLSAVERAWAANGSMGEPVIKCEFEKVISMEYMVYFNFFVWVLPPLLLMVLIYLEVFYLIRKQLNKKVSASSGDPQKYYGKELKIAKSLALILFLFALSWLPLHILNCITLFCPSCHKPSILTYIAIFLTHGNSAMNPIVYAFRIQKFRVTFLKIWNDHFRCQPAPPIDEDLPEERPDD
Description: as §2

hA3AR = target: T2, hA3AR (Homo sapiens, UniProt P0DMS8); assay: Competitive binding assay, hA3AR membranes, [125I]AB-MECA; conditions: read-out: Ki hA3AR, [125I]AB-MECA 0.4 nM, DMSO ≤1%
T2 sequence (P0DMS8 1-318): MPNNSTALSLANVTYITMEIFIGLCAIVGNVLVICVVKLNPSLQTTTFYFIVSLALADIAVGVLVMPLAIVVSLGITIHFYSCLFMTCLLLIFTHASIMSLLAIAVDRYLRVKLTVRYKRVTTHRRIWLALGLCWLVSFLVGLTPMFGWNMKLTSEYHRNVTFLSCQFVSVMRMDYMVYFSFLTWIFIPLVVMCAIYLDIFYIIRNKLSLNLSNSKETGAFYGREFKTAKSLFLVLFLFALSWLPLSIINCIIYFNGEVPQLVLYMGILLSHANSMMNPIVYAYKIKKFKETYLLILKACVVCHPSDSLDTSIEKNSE
Description: as §2

HT-29 cells [9] = test system: HT-29 cells; parameters: method as in PMID 17488804; conditions: hypoxic conditions, through A3AR stimulation; cited from earlier work

Chain of hA2AAR (P29274 whole entry): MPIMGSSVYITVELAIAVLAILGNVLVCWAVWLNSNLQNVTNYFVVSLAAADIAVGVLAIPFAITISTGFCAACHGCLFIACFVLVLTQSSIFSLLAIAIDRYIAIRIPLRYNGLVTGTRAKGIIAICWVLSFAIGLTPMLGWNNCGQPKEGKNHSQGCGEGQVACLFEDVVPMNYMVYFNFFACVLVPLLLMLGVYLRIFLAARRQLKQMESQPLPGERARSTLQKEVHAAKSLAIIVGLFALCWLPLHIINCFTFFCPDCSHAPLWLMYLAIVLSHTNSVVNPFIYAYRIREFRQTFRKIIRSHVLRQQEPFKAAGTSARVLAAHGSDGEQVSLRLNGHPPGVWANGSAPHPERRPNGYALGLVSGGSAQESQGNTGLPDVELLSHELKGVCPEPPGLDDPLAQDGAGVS

Question: For `Nc1ncnc2c1ncn2[C@@H]1O[C@H](CO)[C@@H](O)[C@H]1O` [adenosine], which “affinity for the A3AR” value (rat A3AR) is on record?
Answer: ~ 1 µM

Question: With `CNC(=O)[C@H]1O[C@@H](n2cnc3c(NCc4cccc(I)c4)ncnc32)[C@H](O)[C@@H]1O` [IB-MECA] as the compound, how does the “effect on cell growth” value (HT-29 cells [1]) read?
Answer: growth promoting effect

Question: And the effect on cells (HCT-116 cells)?
Answer: causes cell apoptosis

Question: With `CCSC(=O)c1c(CC)nc(-c2ccccc2)c(C(=O)OCC[18F])c1CC` [[^18F]FE@SUPPY, 5-(2-[18F]fluoroethyl) 2,4-diethyl-3-(ethylsulfanylcarbonyl)-6-phenylpyridine-5-carboxylate] as the compound, how does the intact tracer [2] read?
Answer: 66.9 ± 6.7%

Question: What about the “higher binding in colorectal carcinoma versus healthy colon tissue of the same patient” value [3] of the same compound?
Answer: ≥ 2.3 fold

Question: And the “intact tracer in blood (ex vivo)” value [4]?
Answer: 2.2 ± 0.4%

Question: What about the intact tracer [5] of the same compound?
Answer: 92.6 ± 0.7%

Question: And the intact tracer [6]?
Answer: 31.4 ± 7.8%

Question: What about the “accumulation in bile fluid” value [7] of the same compound?
Answer: 162.78 ± 37.51 % ID/g

Question: And the accumulation in brain [7]?
Answer: 0.23 ± 0.03 % ID/g

Question: What about the accumulation in heart [7] of the same compound?
Answer: 1.13 ± 0.04 % ID/g

Question: What about the accumulation in kidneys [7] of the same compound?
Answer: 2.67 ± 0.24 % ID/g

Question: What about the accumulation in liver [7] of the same compound?
Answer: 14.57 ± 0.20 % ID/g

Question: What about the accumulation in lung [7] of the same compound?
Answer: 1.50 ± 0.23 % ID/g

Question: And the accumulation in urine [7]?
Answer: 43.33 ± 9.23 % ID/g

Question: What about the “circulating radioactivity in blood” value [7] of the same compound?
Answer: 1.6 ± 0.1 % ID/g

Question: What about the “SUV CHO-K1 xenograft tumor (hA3AR negative control)” value (HT-29 xenografts; CB17-SCID mice) of the same compound?
Answer: 0.25 ± 0.33

Question: And the “SUV HT-29 xenograft tumor” value (HT-29 xenografts; CB17-SCID mice)?
Answer: 0.23 ± 0.06

Question: And the SUV bile fluid (HT-29 xenografts; CB17-SCID mice)?
Answer: 21.85 ± 10.63

Question: And the SUV blood (HT-29 xenografts; CB17-SCID mice)?
Answer: 1.21 ± 0.11

Question: What about the SUV urine (HT-29 xenografts; CB17-SCID mice) of the same compound?
Answer: 8.86 ± 3.44

Question: What about the SUV liver (HT-29 xenografts; xenograft-bearing CB17-SCID mice) of the same compound?
Answer: 6.68 ± 0.80

Question: What about the “intact tracer in plasma” value [8] of the same compound?
Answer: 25.8 ± 5.3%

Question: Which Ki (hA2AAR) does the source give for `CCSC(=O)c1c(CC)nc(-c2ccccc2)c(C(=O)O)c1CC` [DFE@SUPPY] here?
Answer: 37.1 ± 16 µM

Question: What about the hA1/hA3AR selectivity ratio (hA1AR; ratio of Ki values) of the same compound?
Answer: 324

Question: And the Ki (hA1AR)?
Answer: 5.46 ± 0.4 µM

Question: What about the Ki (hA3AR; n = 3–5 in triplicate) of the same compound?
Answer: 2.58 ± 1.2 µM

Question: For `CCSC(=O)c1c(CC)nc(-c2ccccc2)c(C(=O)OCCF)c1CC` [FE@SUPPY], which Ki (hA2AAR) is on record?
Answer: 1.72 ± 0.4 µM

Question: And the Ki (hA1AR)?
Answer: 4.03 ± 1 µM

Question: What about the Ki (hA3AR; n = 3) of the same compound?
Answer: 0.00602 ± 0.0004 µM

Question: With `Cn1c(=O)c2c(ncn2C)n(C)c1=O` [caffeine] as the compound, how does the “effect on HIF-1 protein and VEGF expression” value (HT-29 cells [9]) read?
Answer: leads to hypoxia-inducible factor-1 (HIF-1) protein accumulation and increased vascular endothelial growth factor (VEGF) expression
